Patent US20100095387A1, “METHODS AND REAGENTS FOR SCREENING NEW DRUGS AND FOR TREATING ION PUMP ASSOCIATED DISORDERS AND DISEASES” (priority 2005, published 2010)

How the values were obtained:
[1] = test system: layer V neurons in acute cortical slices; assay: Whole cell current clamp of layer V neurons in acute cortical slices; assay type: cell-based, mouse
[2] = target: α3Na+/K+-ATPase (Mus musculus, UniProt Q6PIC6); assay: Na+ imaging (SBFI-AM) of cultured cortical cells; assay type: cell-based; conditions: fragment or ouabain alone; neurons

Row | Compound | action potential frequency [1] [Hz] | membrane potential [1] [mV] | neuronal intracellular Na+ [2]
1 | C=C(C)[C@H]1CN[C@H](C(=O)O)[C@H]1CC(=O)O [kainic acid, reference compound] | 0.6±0.2 | −56.2±1.3 | 
2 | C[C@@H]1O[C@@H](O[C@H]2C[C@@H](O)[C@]3(CO)[C@H]4[C@H](O)C[C@]5(C)[C@@H](C6=CC(=O)OC6)CC[C@]5(O)[C@@H]4CC[C@]3(O)C2)[C@H](O)[C@H](O)[C@H]1O [ouabain, reference compound] |  |  | increase
